How the values were obtained:
[1] = system: mouse colorectal colon26 cells; assay: Proliferation of colon26 cells; type: cell-based; details: dose- and time-dependent
Procedure: (§1) Three human colorectal adenocarcinoma cell lines: SW620 (ATCC® CCL-227™), HCT-15 (ATCC® CCL-225™), LoVo (ATCC® CCL-229™), and one mouse colon carcinoma cell line: CT26 (ATCC® CRL-2638™) were obtained from ATCC. Human cell lines were cultured in DMEM (Lonza Group, Switzerland), while CT26 in RPMI (Biowest, France). The media were supplemented with 10% FBS and 1% penicillin-streptomycin (Lonza Group, Switzerland). Cells were cultured under standard conditions.
(§2) In order to assess the cytotoxicity of CXD101, cells were seeded onto 96-well plates overnight and the next day were dosed with CXD101 and incubated for 72 h or 120 h. Next, 100 μl of Thiazolyl Blue Tetrazolium Bromide (MTT, Sigma-Aldrich, USA) was added into a well (final concentration […]) and incubated for 2 h at 37° C. After that medium was discarded and formazan crystals were dissolved in 100 μl DMSO (VWR International, USA) by shaking for 15 minutes. Absorbance was read by Omega FLUOstar plate reader (BMG Labtech Ltd, Germany) at the 584 nm wavelength. Data were analysed and IC50 doses calculated in GraphPad Prism (GraphPad Software, USA).

MC38 tumours = assay: Syngeneic MC38 tumour model; parameters: species or system C57BL/6 mice; details: mouse, in vivo
Description: Syngeneic colorectal tumour xenograft Colon 26 model was induced in female BALB/c mice and MC38 model in C57BL/6 mice by subcutaneous injection of cell suspension into the flank following the anaesthetization by inhalation of isoflurane. Upon solid tumour formation Colon 26 animals were divided into six experimental groups treated respectively with: vehicle control (control), CXD101, anti-PD-1 mAb (BioXCell, USA), anti-CTLA4 mAb (BioXCell, USA), combination of CXD101 with anti-PD-1 antibody and combination of CXD101 with anti-CTLA4 antibody. MC38 animals were divided into four groups, without CTLA-4-based treatment. During the course of experiment animals were monitored twice daily and weighed three times a week. Mice in bad overall condition and/or tumour volume exceeding 1000 mm3 were euthanized. Tumour volume was calculated by two-dimensional measurement according to the formula: Tumour volume=(a×b^2)×0.5 in which a—represents the largest and, b—the perpendicular tumour diameter. The study was terminated on 36th day (Colon 26) or 48th day (MC38). All Colon 26 animal handling has been executed by Charles River Laboratories (Germany) personnel with compliance to all local and international laws and regulations. Experiments involving MC38 tumour model have been executed by Crown Bioscience San Diego (USA). CXD101 Clinical Trial in Combination with Nivolumab (CTL-101-023)

colon26 cells = assay: RNAseq, colon26 cells in vitro; type: cell-based, mouse
Description: The RNAseq data was aligned to the reference M. musculus genome (mm10) with STAR aligner and analysed for differential expression. […] We further evaluated transcripts identified in the colon26 RNAseq at the single gene level, focusing on murine genes which are homologues of the immune-related genes identified in human SW620 cells, which included genes in the murine MHC H2 complex. A number of H2 genes including class I and class II genes were induced including H2-D1, DMA, DMB1 and EB1 (FIG. 6).
SW620 cells were seeded into 6-well plates and left to adhere overnight. Cells were treated with 1 μM, 10 μM of CXD101 for 48 h. CT26 cells were seeded onto 100 mm plates and treated with 2.7 μM and 10 μM CXD101 for 72 h. After treatment cells were harvested and total RNA extracted by means of Promega ReliaPrep™ RNA Cell Miniprep System (Promega, USA). RNA was dissolved in RNAse free water and stored in −80° C. for future analysis. RNA concentration was measured by NanoDrop 2000 (Thermo Fisher Scientific, USA). Samples were qualified for library preparation if […]. Library preparation with poly (A) enrichment was performed by BGI.

[2] = system: SW620 human colon adenocarcinoma cells; assay: MTT assay, SW620 cells; type: cell-based
Procedure: as §1, §2

H3 acetylation = assay: H3 acetylation, colon26 cells; type: cell-based, mouse; details: colon26, dose-dependent
Procedure: Cell pellets were lysed in TNN buffer, for 30 minutes on ice and centrifuged for another 30 minutes at maximum speed at 4° C. Protein concentration was assessed by Bradford assay (Quick Start™ Bradford 1× Dye Reagent, Bio-Rad Laboratories, USA). After gel electrophoresis, proteins were transferred onto the PVDF membrane by means of Trans-Blot® Turbo™ Transfer System (Bio-Rad Laboratories, USA) and blocked by 1 h incubation in 5% skim milk (Merck Group, Germany) in PBST at RT. To confirm acetylation induced by CXD101, membranes were incubated with anti-H3 (ab1791, abcam) antibody, anti-H3Ack9 (ab10812, abcam) in case of CT26 cells, and for SW620 with H3Ack14 antibody (#7627, Cell Signaling) overnight, at 4° C. Next, membranes were washed and treated with secondary antibody for 1 h at RT. Chemiluminescent signals were detected by LICOR C-Digit (LI-COR Biosciences, USA), and the data quantified using ImageJ software (National Institutes of Health, USA).

colon26 tumours = assay: Immunohistochemistry of colon26 tumour sections; type: in vivo, Balb/c mice
Procedure: Tumours were harvested, embedded in paraffin blocks and cut into 5 μm sections. Antigen retrieval was achieved by incubating in sodium citrate. Sections were incubated with primary antibodies: anti-H3Ack9 (ab10812, abcam), anti-CD8 (ab203035, abcam), anti-CD4 (ab183685, abcam), anti-CD68 (GR300628, abcam), anti-CD163 (GR3232711, abcam and, anti-FoxP3 (14208S, New England Biolabs) and further stained with anti-rabbit secondary antibody (VECTASTAIN Elite ABC HRP Kit, Vector Laboratories Inc, USA) according to the manufacturer protocol. Signal was detected by DAB (3, 3-diaminobenzidine, Vector Laboratories Inc, USA) and sections were counterstained with haematoxylin (Hematoxylin solution Mayer's; pH 2.4, Merck Group, Germany). Pictures were taken using Leica DM2500 optical microscope (Leica Microsystems, Germany) and the signal was semi-quantified by means of ImageJ Fiji software (National Institutes of Health, USA, doi:10.1038/nmeth.2019).

[3] = colon26 in vitro, log 2 FC >1, FDR 1%
[4] = out of 1142 differentially expressed genes
[5] = relative to untreated control animals

## Cc1nn(C)cc1CN1CCC(c2ccc(C(=O)Nc3ccccc3N)cc2)CC1 [CXD101, N-(2-aminophenyl)-4-(1-[(1,3-dimethyl-1H-pyrazol-4-yl)methyl]piperidin-4-yl)benzamide]
[1]
  proliferation of colon26 cells: inhibits proliferation
MC38 tumours
  MC38 tumour response: marginal response
colon26 cells; colon26 cells
  number of DEGs in vitro: 2502
colon26 cells; [3]
  genes down-regulated: 611
  genes up-regulated: 1891
colon26 cells; [4]
  immune-related DEGs, Immunome database: 15%
  immune-related DEGs, Import database: 34%
  immune-related DEGs, immunogenicity database: 36%
[2]
  proliferation of human colon cancer cells: blocks proliferation
H3 acetylation
  H3 acetylation in cells: increases the H3 acetylation
colon26 tumours; compared to untreated animals
  CD68 macrophages: reduced
  CD163 macrophages: reduced
colon26 tumours; mouse, in vivo
  change in Tregs (FoxP3): quite modest
colon26 tumours; [5]
  level of CD4 lymphocytes in tumour: significant increase
  level of CD8 lymphocytes in tumour: significant increase
colon26 tumours; treated vs untreated animals
  nuclear H3K9 acetylation: increased levels
